Biological target: T1, 145138 (Aurantiochytrium limacinum, UniProt A0A3S5XF47)
T1 construct: 6x His-tagged full-length ORF overexpressed in A. limacinum; secreted form purified from medium on Ni-Sepharose; cleaved between L159 and A160; N-terminus ALSSS; 30 kDa on SDS-PAGE
Assay: inhibition of TF-TG hydrolysis ([…],3-TF-DG release), TLC fluorescence scan
Assay type: biochemical
Conditions: competitive; substrate TF-TG

T1 sequence (A0A3S5XF47 160-420): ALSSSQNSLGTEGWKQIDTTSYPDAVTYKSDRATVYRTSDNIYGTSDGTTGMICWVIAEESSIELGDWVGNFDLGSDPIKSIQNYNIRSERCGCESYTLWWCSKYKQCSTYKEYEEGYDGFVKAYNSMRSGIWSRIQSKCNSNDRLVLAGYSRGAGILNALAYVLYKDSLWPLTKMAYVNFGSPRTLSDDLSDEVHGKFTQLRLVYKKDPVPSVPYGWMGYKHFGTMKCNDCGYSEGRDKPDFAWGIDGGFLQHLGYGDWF

`CCCCCCCCCCCCCCCCCC(=O)O[C@H](CO)COP(=O)([O-])OCC[N+](C)(C)C` [2-acyl LPC] was tested, and the “inhibition of TF-TG hydrolysis (1,3-TF-DG release), TLC fluorescence scan” value was 2-acyl LPC competitively inhibited the release of fatty acyl chain at sn-2 of TG.
